Several values for one entry are separate records, joined by “and”; a condition that tells them apart may be missing. Identical values can stand only once.
Legend:
[1] = test system: purified recombinant bacterial Gaussia luciferase; assay: Bioluminescence of recombinant bacterial Gaussia luciferase in assay buffer (luminometer); type: biochemical, Gaussia princeps; conditions: for Gaussia luciferase (bacterial) bioluminescence t = 0 / Gaussia luciferase (bacterial) bioluminescence t = 10: 1.3 μM substrate in 0.5xPBS; for Gaussia luciferase (bacterial) bioluminescence t = 0: t = 0 minutes; for Gaussia luciferase (bacterial) bioluminescence t = 10: t = 10 minutes; for effect on magnitude (M at t = 1-2 minutes) of bioluminescent signal, bacterial Gluc / effect on stability (S at time = 7-10 minutes) of bioluminescent signal, bacterial Gluc: comparison: 1% EDTA to 0%, 0.2% NP40 to 0.025% or 0%, 4 μM coel. to 1.3 μM, 4 μM benzyl coel. to 1.3 μM
Procedure: Renilla luciferase is commercially available from Prolume/NanoLight Technologies, Pinetop, Ariz. Recombinant bacterial Gaussia luciferase was obtained from Prolume/Nanolight Technologies, Pinetop, Ariz. […] An amount of powdered bacterial Gaussia luciferase obtained from Nanolight Technologies, Pinetop, Ariz., was dissolved in DMEM and diluted in control assay buffer until a reading could be obtained from a luminometer.

Renilla luciferase = biological target: T1, Renilla luciferase (Renilla reniformis, UniProt P27652); assay: Bioluminescence of Renilla luciferase in assay buffer (luminometer); type: biochemical; conditions: for Renilla luciferase bioluminescence t = 0 / Renilla luciferase bioluminescence t = 20: 1.3 μM substrate in 0.5xPBS, 0.025% NP40; for Renilla luciferase bioluminescence t = 0: t = 0 minutes; for Renilla luciferase bioluminescence t = 20: t = 20 minutes; for effect on magnitude (M at t = 1-2 minutes) of bioluminescent signal, Bacterial Rluc / effect on stability (S at time = 7-10 minutes) of bioluminescent signal, Bacterial Rluc: comparison: 1% EDTA to 0%, 0.2% NP40 to 0.025% or 0%, 4 μM coel. to 1.3 μM, 4 μM benzyl coel. to 1.3 μM; for effect of 0.2% detergent on Renilla luciferase activity (FIG. 7): 0.2% v/v detergent, T=0 and T=18 minutes; for stability of the luminescent signal in the presence of different detergents: 0.2% and 0.02% detergent
T1 construct: purchased Prolume/NanoLight Technologies, Pinetop, Ariz
T1 sequence (P27652 1-311): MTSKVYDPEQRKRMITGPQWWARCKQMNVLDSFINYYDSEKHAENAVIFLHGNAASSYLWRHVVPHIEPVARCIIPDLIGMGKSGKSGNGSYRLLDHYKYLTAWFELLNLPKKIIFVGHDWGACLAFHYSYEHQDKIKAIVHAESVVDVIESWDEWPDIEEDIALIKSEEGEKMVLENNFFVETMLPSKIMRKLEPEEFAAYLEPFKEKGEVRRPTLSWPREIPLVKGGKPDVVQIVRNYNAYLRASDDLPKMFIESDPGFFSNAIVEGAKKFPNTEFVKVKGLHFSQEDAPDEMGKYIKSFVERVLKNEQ
Excerpt: Renilla luciferase is commercially available from Prolume/NanoLight Technologies, Pinetop, Ariz. Recombinant bacterial Gaussia luciferase was obtained from Prolume/Nanolight Technologies, Pinetop, Ariz.

[2] = test system: Gaussia luciferase secreted from mammalian cells; assay: Bioluminescence of mammalian-secreted Gaussia luciferase in assay buffer (luminometer);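 for all read-outs here: mammalian cell culture supernatants containing secreted Gaussia luciferase were combined with coelenterazine assay buffer and light emission was read on a luminometer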; conditions: for Gaussia luciferase (mammalian) bioluminescence t = 0 / Gaussia luciferase (mammalian) bioluminescence t = 10: 1.3 μM substrate in 0.5xPBS; for Gaussia luciferase (mammalian) bioluminescence t = 0: t = 0 minutes; for Gaussia luciferase (mammalian) bioluminescence t = 10: t = 10 minutes; for effect on magnitude (M at t = 1-2 minutes) of bioluminescent signal, Mammalian Gluc / effect on stability (S at time = 7-10 minutes) of bioluminescent signal, Mammalian Gluc: comparison: 1% EDTA to 0%, 0.2% NP40 to 0.025% or 0%, 4 μM coel. to 1.3 μM, 4 μM benzyl coel. to 1.3 μM; for RLU: zero time; for effect on magnitude (M) of bioluminescent signal, Mammalian Gluc: NaCl conc. 0.075M compared to 0.5M; for bioluminescence T = 0 / bioluminescence T = 15 / bioluminescence T = 45: 0.2% detergent final concentration in 0.5×PBS; for bioluminescence T = 0 / bioluminescence T = 15 / bioluminescence T = 45 / stability of the luminescent signal in the presence of different detergents: 1.3 μM coelenterazine; for bioluminescence T = 0: T = 0 minutes; for bioluminescence T = 15: T = 15 minutes; for bioluminescence T = 45: T = 45 minutes; for stability of the luminescent signal in the presence of different detergents: 0.2% and 0.02% detergent, no EDTA, read again after 15 minutes
Excerpt: Reagents used in the examples include: PBS (Amresco, Solon, Ohio), PBS with Ca/Mg/K (Invitrogen, Carlsbad, Calif.), Igepal CA-630 referred to throughout as NP40 (Sigma Aldrich, St. Louis, Mo.), Standard Renilla assay reagent (Promega, Madison, Wis.), coelenterazine and benzyl coelenterazzine (Prolume/NanoLight Technologies, Pinetop, Ariz.), expression vector for Gaussia luciferase in mammals (New England Biolabs, Inc., Ipswich, Mass.), Dulbecco's minimal essential medium (DMEM) (Invitrogen, Carlsbad, Calif.) used for diluting mammalian and bacterial expressed Gaussia luciferase. Measurements of bioluminescence were carried out with a luminometer (Turner TD2020 luminometer, Turner BioSystems, Sunnyvale, Calif.).
An amount of this coelenterazine solution was added to the assay buffer to a final concentration in the range of I-10 μM. 50 μl of the assay buffer was mixed with 20 μl of sample containing luciferase and bioluminescence was measured using a luminometer.
In this example, 20 μl of mammalian Gaussia luciferase samples (cell supernatants) were mixed with 8 μl of the indicated detergents at 2% and 0.2% concentration (final concentration of detergents in assay solution was 0.2% and 0.02%) and 50 μl of the Gaussia luciferase assay reagent (0.5×PBS, no EDTA, 1.3 μM coelenterazine) and read in a Turner TD2020 Luminometer, Turner BioSystems, Sunnyvale, Calif. The samples were read again after 15 minutes to evaluate the stability of the luminescent signal in the presence of different detergents.

Firefly luciferase = Firefly luciferase (Photinus pyralis, UniProt P08659); assay: Summary of effect on bioluminescent signal of firefly luciferase; type: biochemical
Chain of Firefly luciferase (P08659 whole entry): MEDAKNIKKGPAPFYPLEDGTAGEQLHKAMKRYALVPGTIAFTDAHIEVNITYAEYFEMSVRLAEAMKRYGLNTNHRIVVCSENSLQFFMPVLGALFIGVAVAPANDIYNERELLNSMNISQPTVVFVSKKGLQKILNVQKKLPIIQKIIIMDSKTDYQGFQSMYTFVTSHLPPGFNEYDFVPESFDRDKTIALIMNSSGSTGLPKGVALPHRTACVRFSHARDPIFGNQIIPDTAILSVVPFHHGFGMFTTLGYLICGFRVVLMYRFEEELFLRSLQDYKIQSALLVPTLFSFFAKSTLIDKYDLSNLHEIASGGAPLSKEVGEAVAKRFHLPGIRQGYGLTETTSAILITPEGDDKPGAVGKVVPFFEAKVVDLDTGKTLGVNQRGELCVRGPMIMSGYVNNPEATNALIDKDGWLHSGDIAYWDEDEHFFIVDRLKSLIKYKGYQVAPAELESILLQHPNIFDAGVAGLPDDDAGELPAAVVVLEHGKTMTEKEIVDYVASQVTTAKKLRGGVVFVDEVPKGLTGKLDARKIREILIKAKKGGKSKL

[3] = 1.3 μM substrate, 0.5×PBS, 1% EDTA, 0.025% NP40, compared with 1.3 μM coelenterazine

| Compound | effect on magnitude (M at t = 1-2 minutes) of bioluminescent signal, bacterial Gluc [1] | effect on magnitude (M at t = 1-2 minutes) of bioluminescent signal, Bacterial Rluc (Renilla luciferase) | effect on stability (S at time = 7-10 minutes) of bioluminescent signal, Bacterial Rluc (Renilla luciferase) | effect on magnitude (M at t = 1-2 minutes) of bioluminescent signal, Mammalian Gluc [2] | effect on stability (S at time = 7-10 minutes) of bioluminescent signal, Mammalian Gluc [2] | bioluminescence T = 0 ([2]; 1% EDTA) | bioluminescence T = 15 ([2]; 1% EDTA) | bioluminescence T = 45 ([2]; 1% EDTA) | effect of 0.2% detergent on Renilla luciferase activity (FIG. 7) (Renilla luciferase) | other results |
| --- | --- | --- | --- | --- | --- | --- | --- | --- | --- | --- |
| Oc1ccc(Cc2nc3c(Cc4ccccc4)nc(-c4ccc(O)cc4)cn3c2O)cc1 [Coel., coelenterazine] | M up | M up | S down | M up |  |  |  |  |  | Gaussia luciferase (bacterial) bioluminescence t = 0 ([1]; 0.025% NP40): 1630 and 1837 and 1903; Gaussia luciferase (bacterial) bioluminescence t = 10 ([1]; 0.025% NP40): 58 and 59 and 60; effect of coelenterazine concentrations greater than 4 μM on luciferase activity (FIG. 4B) ([1]; 1.3-25 μM coelenterazine): no significant increases in luciferase activity; Renilla luciferase bioluminescence t = 0 (Renilla luciferase): 2296 and 1790 and 2520; Renilla luciferase bioluminescence t = 20 (Renilla luciferase): 194 and 139 and 211; Gaussia luciferase (mammalian) bioluminescence t = 0 ([2]; 0.025% NP40): 594 and 565 and 556; Gaussia luciferase (mammalian) bioluminescence t = 10 ([2]; 0.025% NP40): 31 and 30 and 29; effect of coelenterazine concentrations greater than 4 μM on luciferase activity (FIG. 4A) ([2]; 1.3-25 μM coelenterazine in 0.5×PBS, 1% EDTA, 0.025% NP40, zero time): no significant increase in luciferase activity |
| O=C(O)CN(CCN(CC(=O)O)CC(=O)O)CC(=O)O [EDTA] | M down | M down | S down | M down | S up |  |  |  |  | effect on magnitude (M at t = 1-2 minutes) of bioluminescent signal, Firefly (Firefly luciferase; 1% EDTA compared to 0%): M down |
| [Cl-].[Na+] [NaCl, sodium chloride] |  |  |  |  |  |  |  |  |  | RLU ([2]; 0.175M NaCl in adjusted 0.5 × PBS + 1% EDTA + 0.025% NP40 + 1.3 μM coel.): 1322 RLU and 1350 RLU and 1242 RLU; RLU ([2]; 0.275M NaCl in adjusted 0.5 × PBS + 1% EDTA + 0.025% NP40 + 1.3 μM coel.): 1364 RLU and 1252 RLU and 1204 RLU; RLU ([2]; 0.375M NaCl in adjusted 0.5 × PBS + 1% EDTA + 0.025% NP40 + 1.3 μM coel.): 1129 RLU and 1098 RLU and 1246 RLU; RLU ([2]; 0.5M NaCl in adjusted 0.5 × PBS + 1.3 μM coel.): 1212 RLU and 701 RLU; RLU ([2]; 0.575M NaCl in adjusted 0.5 × PBS + 1% EDTA + 0.025% NP40 + 1.3 μM coel.): 1049 RLU and 1035 RLU and 1149 RLU; RLU ([2]; 1M NaCl in adjusted 0.5 × PBS + 1.3 μM coel.): 760 RLU and 750 RLU; effect on magnitude (M) of bioluminescent signal, Mammalian Gluc ([2]; + EDTA): M same + EDTA; effect on magnitude (M) of bioluminescent signal, Mammalian Gluc ([2]; −EDTA-NP40): M down |
| CCCCCCCCCCCCOS(=O)(=O)[O-].[Na+] [SDS, sodium dodecyl sulfate] |  |  |  |  |  | 0 RLU | 0 RLU | 0 RLU |  |  |
| CCCCCCCC/C=C\CCCCCCCC(=O)OCCOCC(OCCO)C1OCC(OCCO)C1OCCO (stereo not shown) [Tween80] |  |  |  |  |  | 128 RLU | 101 RLU | 58 RLU | stabilizing effect |  |
| NP40 | M down | M down | S up | M down | S up | 87 RLU | 112 RLU | 79 RLU | stabilizing effect | effect on stability (S at time = 7-10 minutes) of bioluminescent signal, Firefly (Firefly luciferase; 0.2% NP40 compared to 0.025% or 0%): S up; effect on stability (S at time = 7-10 minutes) of bioluminescent signal, bacterial Gluc [1]: S up; stability of the luminescent signal in the presence of different detergents (Renilla luciferase): optimum stability; stability of the luminescent signal in the presence of different detergents ([2]; 0.5×PBS): optimum stability |
| Triton X-100 |  |  |  |  |  | 59 RLU | 80 RLU | 63 RLU | stabilizing effect | stability of the luminescent signal in the presence of different detergents (Renilla luciferase): optimum stability; stability of the luminescent signal in the presence of different detergents ([2]; 0.5×PBS): optimum stability |
| benzyl coelenterazine [Benzyl Coel.] | M down | M up | S up | M down | S down |  |  |  |  | Gaussia luciferase (bacterial) bioluminescence t = 0 ([1]; 0.025% NP40): 81.75 and 83 and 84; Gaussia luciferase (bacterial) bioluminescence t = 10 ([1]; 0.025% NP40): 7.9 and 8.1; suitability as substrate (FIG. 8) [1, 3]: poor substrate; effect on stability (S at time = 7-10 minutes) of bioluminescent signal, bacterial Gluc [1]: S down; Renilla luciferase bioluminescence t = 0 (Renilla luciferase): 9036 and 7687 and 7955; Renilla luciferase bioluminescence t = 20 (Renilla luciferase): 2234 and 1944 and 1359; suitability as substrate (FIG. 9) (Renilla luciferase; 1.3 μM substrate, 0.5×PBS, 0.025% NP40, 1% EDTA, compared with 1.3 μM coelenterazine): good substrate; Gaussia luciferase (mammalian) bioluminescence t = 0 ([2]; 0.025% NP40): 34 and 30 and 31; Gaussia luciferase (mammalian) bioluminescence t = 10 ([2]; 0.025% NP40): 3.49 and 3.6 and 3.66; suitability as substrate (FIG. 8) [2, 3]: poor substrate |
| deoxycholate [DOC] |  |  |  |  |  | 4 RLU | 2 RLU | 2 RLU |  |  |
